# Test results published in ChEMBL document CHEMBL4765295, “Synthesis, pharmacological profile and 2D-QSAR studies of curcumin-amino acid conjugates as potential drug candidates” (Eur J Med Chem, 2020).
# Where “and” joins values, the source holds several entries; their conditions need not be identical. Equal entries are not always repeated.
# Assays:
# [1] = test system: Rattus norvegicus; assay: Antiinflammatory activity in Wistar rat model of carrageenan-induced paw edema assessed as reduction in thickness of paw edema at 10 mg/kg, ip pretreated for 1 hr followed by carrageenan challenge and measured after 1 hr (reference value: 2.41 +/-0.05 mm); format: functional; settings: time 1 hr after carrageenan
# [2] = test system: Rattus norvegicus; assay: Anti-inflammatory activity in Wistar rat assessed as inhibition of carrageenan-induced paw edema at 10 mg/kg, ip pretreated for 1 hr followed by carrageenan challenge and measured after 1 hr relative to control (reference value: 0.00 +/-0.02 %); format: functional; settings: time 2 hrs
# [3] = test system: Rattus norvegicus; assay: Antiinflammatory activity in Wistar rat model of carrageenan-induced paw edema assessed as reduction in thickness of paw edema at 10 mg/kg, ip pretreated for 1 hr followed by carrageenan challenge and measured after 2 hrs (reference value: 2.06 +/-0.09 mm); format: functional; settings: time 3 hrs
# [4] = test system: Rattus norvegicus; assay: Anti-inflammatory activity in Wistar rat assessed as inhibition of carrageenan-induced paw edema at 10 mg/kg, ip pretreated for 1 hr followed by carrageenan challenge and measured after 2 hr relative to control (reference value: 0.00 +/-0.03 %); format: functional; settings: time 3 hrs
# [5] = test system: Rattus norvegicus; assay: Antiinflammatory activity in Wistar rat model of carrageenan-induced paw edema assessed as reduction in thickness of paw edema at 10 mg/kg, ip pretreated for 1 hr followed by carrageenan challenge and measured after 3 hrs (reference value: 1.79 +/-0.07 mm); format: functional; settings: time 4 hrs
# [6] = test system: Rattus norvegicus; assay: Anti-inflammatory activity in Wistar rat assessed as inhibition of carrageenan-induced paw edema at 10 mg/kg, ip pretreated for 1 hr followed by carrageenan challenge and measured after 3 hr relative to control (reference value: 0.00 +/-0.1 %); format: functional; settings: time 4 hrs
# [7] = test system: Rattus norvegicus; assay: Antiinflammatory activity in Wistar rat model of carrageenan-induced paw edema assessed as reduction in thickness of paw edema at 10 mg/kg, ip pretreated for 1 hr followed by carrageenan challenge and measured after 4 hrs (reference value: 1.40 +/-0.10 mm); format: functional; settings: time 5 hrs
# [8] = test system: Rattus norvegicus; assay: Anti-inflammatory activity in Wistar rat assessed as inhibition of carrageenan-induced paw edema at 10 mg/kg, ip pretreated for 1 hr followed by carrageenan challenge and measured after 4 hr relative to control (reference value: 0.00 +/-0.4 %); format: functional; settings: time 5 hrs
# [9] = test system: Rattus norvegicus; assay: Antiinflammatory activity in Wistar rat model of carrageenan-induced paw edema assessed as reduction in thickness of paw edema at 10 mg/kg, ip pretreated for 1 hr followed by carrageenan challenge and measured after 24 hrs (reference value: 0.83 +/-0.08 mm); format: functional; settings: time 25 hrs
# [10] = test system: Rattus norvegicus; assay: Anti-inflammatory activity in Wistar rat assessed as inhibition of carrageenan-induced paw edema at 10 mg/kg, ip pretreated for 1 hr followed by carrageenan challenge and measured after 24 hr relative to control (reference value: 0.00 +/-0.3 %); format: functional; settings: time 25 hrs
# [11] = test system: Rattus norvegicus; assay: Anti-inflammatory activity in Wistar rat assessed as inhibition of carrageenan-induced paw edema at 10 mg/kg, ip pretreated for 1 hr followed by carrageenan challenge and measured after 4 hr relative to indomethacin; format: functional; settings: time 5 hrs
# [12] = Ulcerogenic activity in fasted albino mouse assessed as incidence of gastric ulceration at 10 mg/kg, po for 3 days (reference value: 0 %); format: toxicity, organism-based; settings: in vivo, 72 h, time 3 day
# [13] = Ulcerogenic activity in fasted albino mouse assessed as average number of ulcers in gastric mucosa at 10 mg/kg, po for 3 days (reference value: 0); format: toxicity, organism-based; settings: in vivo, 72 h, time 3 day
# [14] = Ulcerogenic activity in fasted albino mouse assessed as average severity of ulcers in gastric mucosa at 10 mg/kg, po for 3 days (reference value: 0); format: toxicity, organism-based; settings: in vivo, 72 h, time 3 day
# [15] = Ulcerogenic activity in fasted albino mouse assessed as ulcer index in gastric mucosa at 10 mg/kg, po for 3 days (reference value: 0); format: toxicity, organism-based; settings: in vivo, 72 h, time 3 day
# [16] = test system: Splenocyte; assay: Immunomodulatory activity in Swiss albino mouse splenocytes assessed as cell viability at 10 uM by measuring stimulation index incubated for 72 hrs in presence of mitogenic stimulus phytohaemagglutinin by MTT assay (reference value: 1.00 +/- 0.24); format: functional
# [17] = test system: Splenocyte; assay: Immunomodulatory activity in Swiss albino mouse splenocytes assessed as cell viability at 10 uM by measuring inhibition of stimulation index incubated for 72 hrs in presence of mitogenic stimulus phytohaemagglutinin by MTT assay relative to indomethacin; format: functional; settings: read-out: Activity
# [18] = test system: Peritoneal macrophage; assay: Antiinflammatory activity in […] mouse Peritoneal macrophages assessed as reduction in LPS-induced NO production by measuring reduction in stimulation index at 10 uM preincubated for 1 hr followed by LPS stimulation measured after 24 hrs by Griess method (reference value: 27.31 +/- 2.56 uM); format: functional; settings: time 25 hrs
# [19] = test system: Peritoneal macrophage; assay: Antiinflammatory activity in […] mouse Peritoneal macrophages assessed as inhibition of LPS-induced NO production at 10 uM preincubated for 1 hr followed by LPS stimulation measured after 24 hrs by Griess method relative to control (reference value: 0.0 %); format: functional; set-up: scale not given: the % may be the effect or the level left; settings: time 25 hrs
# [20] = test system: Mus musculus; assay: Analgesic activity in albino mouse assessed reduction in acetic acid-induced abdominal writhing by measuring writing reflex at 10 mg/kg, ip pretreated for 1 hr followed by acetic acid challenge and measured starting 5 mins post acetic acid challenge for 10 mins (reference value: 42.4 +/- 1.02); format: functional; settings: time 75 min, 1.25 h
# [21] = test system: Mus musculus; assay: Analgesic activity in albino mouse assessed protection against acetic acid-induced abdominal writhing at 10 mg/kg, ip pretreated for 1 hr followed by acetic acid challenge and measured starting 5 mins post acetic acid challenge for 10 mins relative to control (reference value: 0 %); format: functional; settings: time 75 min, 1.25 h
# [22] = test system: Mus musculus; assay: Analgesic activity in albino mouse assessed protection against acetic acid-induced abdominal writhing at 10 mg/kg, ip pretreated for 1 hr followed by acetic acid challenge and measured starting 5 mins post acetic acid challenge for 10 mins relative to indomethacin; format: functional; settings: time 75 min, 1.25 h
# [23] = test system: Mus musculus; assay: Analgesic activity in albino mouse assessed as forepaw licking/jumping latency time at 10 mg/kg, ip measured after 30 mins by hot plate test (reference value: 5.02 +/- 0.09 sec); format: functional; settings: 0.5 h
# [24] = test system: Mus musculus; assay: Analgesic activity in albino mouse assessed as protection at 10 mg/kg, ip measured after 30 mins by hot plate test (reference value: 0 %); format: functional; settings: 0.5 h
# [25] = test system: Mus musculus; assay: Analgesic activity in albino mouse assessed as forepaw licking/jumping latency time at 10 mg/kg, ip measured after 60 mins by hot plate test (reference value: 3.42 +/- 0.03 sec); format: functional; settings: 1 h
# [26] = test system: Mus musculus; assay: Analgesic activity in albino mouse assessed as protection at 10 mg/kg, ip measured after 60 mins by hot plate test (reference value: 0 %); format: functional; settings: 1 h
# [27] = test system: Mus musculus; assay: Analgesic activity in albino mouse assessed as forepaw licking/jumping latency time at 10 mg/kg, ip measured after 90 mins by hot plate test (reference value: 2.72 +/- 0.01 sec); format: functional; settings: 1.5 h
# [28] = test system: Mus musculus; assay: Analgesic activity in albino mouse assessed as protection at 10 mg/kg, ip measured after 90 mins by hot plate test (reference value: 0 %); format: functional; settings: 1.5 h
# [29] = test system: Mus musculus; assay: Analgesic activity in albino mouse assessed as forepaw licking/jumping latency time at 10 mg/kg, ip measured after 120 mins by hot plate test (reference value: 2.62 +/- 0.06 sec); format: functional; settings: 2 h
# [30] = test system: Mus musculus; assay: Analgesic activity in albino mouse assessed as protection at 10 mg/kg, ip measured after 120 mins by hot plate test (reference value: 0 %); format: functional; settings: 2 h
# [31] = test system: Mus musculus; assay: Analgesic activity in albino mouse assessed as protection at 10 mg/kg, ip measured after 120 mins by hot plate test relative to indomethacin; format: functional; settings: 2 h
# [32] = test system: Staphylococcus aureus; assay: Antibacterial activity against Staphylococcus aureus ATCC 25923 incubated for 18 hrs by agar dilution method; format: functional
# [33] = test system: Streptococcus pyogenes; assay: Antibacterial activity against Streptococcus pyogenes ATCC 19615 incubated for 18 hrs by agar dilution method; format: functional
# [34] = test system: Salmonella typhimurium; assay: Antibacterial activity against Salmonella typhimurium ATCC 19430 incubated for 18 hrs by agar dilution assay; format: functional, Salmonella enterica subsp. enterica serovar Typhimurium; settings: Salmonella enterica
# [35] = test system: Pseudomonas aeruginosa; assay: Antibacterial activity against Pseudomonas aeruginosa ATCC 27853 incubated for 18 hrs by agar dilution assay; format: functional
# [36] = test system: Candida albicans; assay: Antifungal activity against Candida albicans incubated for 18 to 24 hrs by CLSI method; format: functional; settings: time 18-24 hrs
# [37] = Toxicity in albino mouse assessed as induction of toxic symptoms at 50 to 100 mg/kg, ip measured after 24 hrs; format: organism-based; settings: in vivo, dose 50-100 mg/kg
smiles,measurement,setting,value
COc1cc(/C=C/C(=O)/C=C(O)/C=C/c2ccc(OC(=O)[C@@H](CCSC)NC(=O)OCc3ccccc3)c(OC)c2)ccc1OC(=O)[C@@H](CCSC)NC(=O)OCc1ccccc1,Activity,[1],0.51 mm
same,inhibition in vivo at 10 mg/kg,[2],79%
same,Activity,[3],0.41 mm
same,inhibition in vivo at 10 mg/kg,[4],80%
same,Activity,[5],0.27 mm
same,inhibition in vivo at 10 mg/kg,[6],85%
same,Activity,[7],0.08 mm
same,inhibition in vivo at 10 mg/kg,[8],94%
same,Activity,[9],0.08 mm
same,inhibition in vivo at 10 mg/kg,[10],90%
same,inhibition in vivo at 10 mg/kg,[11],108%
same,Activity,[12],0%
same,Activity,[13],0
same,Activity,[14],0
same,UI,[15],0
same,Activity_index,[16],1.37
same,viability at 10 µM,[17],88.5%
same,Activity,[18],16.16 µM
same,Activity,[19],40.84%
same,Activity,[20],34.8
same,Activity,[21],17.9%
same,Activity,[22],29.1%
same,Time,[23],5.48 s
same,Activity,[24],9.2%
same,Time,[25],5.44 s
same,Activity,[26],59.1%
same,Time,[27],4.88 s
same,Activity,[28],79.4%
same,Time,[29],4.68 s
same,Activity,[30],78.6%
same,Activity,[31],187.1%
same,MIC,[32],0.125 µg/mL and 0.139 µM
same,MIC,[33],0.125 µg/mL and 0.139 µM
same,MIC,[34],0.5 µg/mL and 0.556 µM
same,MIC,[35],1 µg/mL and 1.11 µM
same,MIC,[36],0.125 µg/mL and 0.139 µM
same,Activity,[37],Non-Toxic
